Here are results for three compounds from ChEMBL document CHEMBL1255208, “A class of novel conjugates of substituted purine and Gly-AA-OBzl: synthesis and evaluation of orally analgesic activity” (2010).

Common to all, as to format: functional
Assay [1] concerns Mus musculus. Nature of the assay: Analgesic activity in mouse assessed as pain threshold variation at 3 umol/kg, po after 180 mins (RVb = 0.15 +/- 0.12 %).
For assay [2], the system named is Mus musculus. Nature of the assay: Analgesic activity in mouse assessed as pain threshold variation at 0.3 umol/kg, po after 90 mins (RVb = 0.17 +/- 0.14 %).
For assay [3], the system named is Mus musculus. Nature of the assay: Analgesic activity in mouse assessed as pain threshold variation at 25 umol/kg, po after 150 mins (RVb = 3.98 +/- 4.03 %).
In assay [4] the test system is Mus musculus. The assay can be described thus: Analgesic activity in mouse assessed as pain threshold variation at 3 umol/kg, po after 150 mins (RVb = 0.16 +/- 0.13 %).
The test system of assay [5] is Mus musculus. Nature of the assay: Analgesic activity in mouse assessed as pain threshold variation at 25 umol/kg, po after 30 mins (RVb = -1 +/- 2.8 %).
For assay [6], the system named is Mus musculus. Nature of the assay: Analgesic activity in mouse assessed as pain threshold variation at 0.3 umol/kg, po after 60 mins (RVb = 0.15 +/- 0.16 %).
Assay [7] has as its system Mus musculus. The assay can be described thus: Analgesic activity in mouse assessed as pain threshold variation at 30 umol/kg, po after 90 mins (RVb = 0.17 +/- 0.14 %).
The test system of assay [8] is Mus musculus. The assay can be described thus: Analgesic activity in mouse assessed as pain threshold variation at 30 umol/kg, po after 60 mins (RVb = 0.15 +/- 0.16 %).
For assay [9], the system named is Mus musculus. Nature of the assay: Analgesic activity in mouse assessed as pain threshold variation at 25 umol/kg, po after 120 mins (RVb = 0.69 +/- 1.98 %).
Assay [10] has as its system Mus musculus. The assay can be described thus: Analgesic activity in mouse assessed as pain threshold variation at 0.3 umol/kg, po after 180 mins (RVb = 0.15 +/- 0.12 %).
The test system of assay [11] is Mus musculus. Nature of the assay: Analgesic activity in mouse assessed as pain threshold variation at 3 umol/kg, po after 120 mins (RVb = 0.18 +/- 0.15 %).
Assay [12] deals with Mus musculus. The assay can be described thus: Analgesic activity in mouse assessed as pain threshold variation at 30 umol/kg, po after 120 mins (RVb = 0.18 +/- 0.15 %).
The test system of assay [13] is Mus musculus. Nature of the assay: Analgesic activity in mouse assessed as pain threshold variation at 0.3 umol/kg, po after 30 mins (RVb = 0.13 +/- 0.14 %).
In assay [14] the test system is Mus musculus. The assay can be described thus: Analgesic activity in mouse assessed as pain threshold variation at 30 umol/kg, po after 30 mins (RVb = 0.13 +/- 0.14 %).
Assay [15] has as its system Mus musculus. Nature of the assay: Analgesic activity in mouse assessed as pain threshold variation at 3 umol/kg, po after 60 mins (RVb = 0.15 +/- 0.16 %).
The test system of assay [16] is Mus musculus. Nature of the assay: Analgesic activity in mouse assessed as pain threshold variation at 25 umol/kg, po after 90 mins (RVb = 0.2 +/- 3.75 %).
Assay [17] relates to Mus musculus. The assay can be described thus: Analgesic activity in mouse assessed as pain threshold variation at 3 umol/kg, po after 30 mins (RVb = 0.13 +/- 0.14 %).
For assay [18], the system named is Mus musculus. Nature of the assay: Analgesic activity in mouse assessed as pain threshold variation at 0.3 umol/kg, po after 150 mins (RVb = 0.16 +/- 0.13 %).
Assay [19] deals with Mus musculus. Nature of the assay: Analgesic activity in mouse assessed as pain threshold variation at 30 umol/kg, po after 150 mins (RVb = 0.16 +/- 0.13 %).
The subject of assay [20] is Mus musculus. Nature of the assay: Analgesic activity in mouse assessed as pain threshold variation at 25 umol/kg, po after 60 mins (RVb = -6.5 +/- 1.79 %).
For assay [21], the system named is Mus musculus. The assay can be described thus: Analgesic activity in mouse assessed as pain threshold variation at 30 umol/kg, po after 180 mins (RVb = 0.15 +/- 0.12 %).
In assay [22] the test system is Mus musculus. Nature of the assay: Analgesic activity in mouse assessed as pain threshold variation at 3 umol/kg, po after 90 mins (RVb = 0.17 +/- 0.14 %).
In assay [23] the test system is Mus musculus. Nature of the assay: Analgesic activity in mouse assessed as pain threshold variation at 25 umol/kg, po after 180 mins (RVb = -5.10 %).
Assay [24] deals with Mus musculus. The assay can be described thus: Analgesic activity in mouse assessed as pain threshold variation at 0.3 umol/kg, po after 120 mins (RVb = 0.18 +/- 0.15 %).

On to `C[C@H](NC(=O)CN(c1nc(Cl)nc2c1ncn2C1CCCCO1)C1CC1)C(=O)OCc1ccccc1` (some centres not stated), for which the Activity with Mus musculus [1] is 10%; with Mus musculus [2], 11.43%; in the assay on Mus musculus [3], 6.01%; in the assay with Mus musculus [4], 12%; in the assay with Mus musculus [5], 55.91%; in the assay with Mus musculus [6], 21.56%. The Activity in the assay with Mus musculus [7] turned out to be 37.16%; in the assay on Mus musculus [8], 58.18%; in the assay with Mus musculus [9] it was 25.3%; in the assay on Mus musculus [10], 8.09%; in the assay on Mus musculus [11] it was 18.03%; with Mus musculus [12], 30.44%. In addition, the Activity is listed as 25.6% in the assay on Mus musculus [13]; 60.11% in the assay with Mus musculus [14]; 39.81% with Mus musculus [15]; 32.06% with Mus musculus [16]; 43.25% in the assay on Mus musculus [17]; 10% in the assay with Mus musculus [18]. The Activity came out at 11.2% with Mus musculus [19]; 53% in the assay on Mus musculus [20]; 11% in the assay with Mus musculus [21]; 25.34% with Mus musculus [22]; 5.96% in the assay on Mus musculus [23]; 11.03% with Mus musculus [24].
In the case of `N=C(N)NCCC[C@H](NC(=O)CN(c1nc(Cl)nc2c1ncn2C1CCCCO1)C1CC1)C(=O)OCc1ccccc1` (some centres not stated), the Activity in the assay with Mus musculus [1] worked out at 10.34%; in the assay with Mus musculus [2], 32.88%; in the assay with Mus musculus [3], 19.6%; in the assay with Mus musculus [4], 15%; in the assay with Mus musculus [5], 34.27%; in the assay on Mus musculus [6], 25.11%. Besides, the Activity in the assay on Mus musculus [7] was determined as 66.71%; with Mus musculus [8] it was 57.51%; with Mus musculus [9], 38.16%; in the assay on Mus musculus [10], 7.56%; in the assay on Mus musculus [11], 29.09%; with Mus musculus [12], 43.3%. Further, the Activity in the assay on Mus musculus [13] was determined as 12.15%; with Mus musculus [14], 39.41%; in the assay with Mus musculus [15], 41.07%; in the assay with Mus musculus [16], 61.58%; with Mus musculus [17], 20.55%; in the assay on Mus musculus [18], 10.03%. Moreover, the Activity in the assay on Mus musculus [19] was 24.69%; in the assay with Mus musculus [20], 52.35%; in the assay with Mus musculus [21], 14.01%; with Mus musculus [22], 50.14%; with Mus musculus [23], 7.97%; in the assay with Mus musculus [24], 12.14%.
For `O=C(CN(c1nc(Cl)nc2c1ncn2C1CCCCO1)C1CC1)NCC(=O)OCc1ccccc1` (configuration not stated), the Activity in the assay with Mus musculus [1] was 9.2%; with Mus musculus [2], 11.2%; in the assay with Mus musculus [3], 7.26%; in the assay on Mus musculus [4], 10.04%; with Mus musculus [5], 55.72%; in the assay on Mus musculus [6], 16.24%. Also, the Activity is on record as 31.04% in the assay with Mus musculus [7]; 45.52% in the assay with Mus musculus [8]; 17.23% in the assay with Mus musculus [9]; 9% in the assay with Mus musculus [10]; 14.53% in the assay on Mus musculus [11]; 22.31% in the assay with Mus musculus [12]. Also, the Activity came out at 18% with Mus musculus [13]; 60.84% with Mus musculus [14]; 29.07% in the assay with Mus musculus [15]; 25.94% in the assay with Mus musculus [16]; 45.27% in the assay with Mus musculus [17]; 9.45% in the assay on Mus musculus [18]. For the same compound, the Activity in the assay on Mus musculus [19] is 12.33%; with Mus musculus [20], 40.44%; in the assay with Mus musculus [21] it was 10.16%; in the assay with Mus musculus [22], 20.25%; in the assay with Mus musculus [23], 0.06%; with Mus musculus [24] it was 10.02%.
